Experimental data taken from ChEMBL document CHEMBL4483862, “Open-source discovery of chemical leads for next-generation chemoprotective antimalarials” (2018).

System: Plasmodium berghei
Assay: Luciferase/luciferin-expressing antifolate-resistant parasites were used to infect a culture of HepG2 cells that were pre-incubated with compounds. Infected hepatocytes emit light due to the luciferase reaction. Assay results are presented as the percent inhibition of light emission compared to control. […]
Assay type: functional
Details: sporozoite; for IC90: read-out: LUCIFERASE INFECTION ASSAY - IC90
[1] = read-out: LUCIFERASE INFECTION ASSAY - IC50

| Compound | IC90 | IC50 [1] | also measured |
| --- | --- | --- | --- |
| Cc1[nH]c2ccccc2c1C(=O)C(=O)Nc1ccc(N2CCCCC2)nc1 | 9.82 µM |  | IC50 (PBLUC_HILL_SLOPE 5.45, PBLUC_R_SQUARED 0.664, read-out: LUCIFERASE INFECTION ASSAY - IC50): 6.56 µM |
| O=C(CN1CCN(C(=O)C2COc3ccccc3O2)CC1)Nc1ccccc1-c1ccccc1 (stereo not drawn) | > 10 µM | > 10 µM |  |
| CCc1ccc(CNCc2ccc3c(c2)OCO3)cc1 | > 12.3 µM | > 12.3 µM |  |
| COc1ccccc1C(CCNCc1ccc(F)cc1)c1ccco1 (stereo not drawn) | 1.66 µM |  | IC50 (HEPG2TOX_HILL_SLOPE 6.69, HEPG2TOX_R_SQUARED 0.485, PBLUC_HILL_SLOPE 6.64, PBLUC_R_SQUARED 0.691, read-out: LUCIFERASE INFECTION ASSAY - IC50): 1.19 µM |
| CNc1nc2cnc(Nc3cccc(C(F)(F)F)c3)cc2n1Cc1ccco1 | > 10 µM |  | IC50 (HEPG2TOX_HILL_SLOPE 2.71, HEPG2TOX_R_SQUARED 0.929, read-out: LUCIFERASE INFECTION ASSAY - IC50): > 10 µM |
| COc1ccc(-n2nc(C)c3c(=O)c(Cl)c(C)[nH]c32)cc1 | > 10.9 µM |  | IC50 (PBLUC_HILL_SLOPE 4.15, PBLUC_R_SQUARED 0.0529, read-out: LUCIFERASE INFECTION ASSAY - IC50): 10.4 µM |
| Clc1ccc(CNc2ncc3c(n2)CCN(Cc2ccccc2)C3)cc1Cl | > 8.26 µM | > 8.26 µM |  |
| Cc1ccc(S(=O)(=O)N2CCCCC2)cc1NC(=O)C[N+]12CCN(CC1)CC2 | > 10 µM | > 10 µM |  |
| CC(=O)NCc1ccc(-c2csc(NC(=O)c3cc4cnn(C(C)C)c4nc3C)n2)s1 | > 10 µM |  | IC50 (HEPG2TOX_HILL_SLOPE 7.15, HEPG2TOX_R_SQUARED 0.462, PBLUC_HILL_SLOPE 31.4, PBLUC_R_SQUARED 0.13, read-out: LUCIFERASE INFECTION ASSAY - IC50): 9.38 µM |
| CN(C)Cc1ccccc1NC(=O)Nc1ccc(Cl)cc1 | 7.23 µM |  | IC50 (PBLUC_HILL_SLOPE 3.91, PBLUC_R_SQUARED 0.658, read-out: LUCIFERASE INFECTION ASSAY - IC50): 4.13 µM |
| CCOC(=O)c1sc(N2CCCC2)c2c1CC(C)(C)CC2=O | > 10.3 µM | > 10.3 µM |  |
| CCCNC(=O)COC(=O)c1cc(Br)ccc1N | > 10 µM | > 10 µM |  |
| CN(C)CCNCCCOc1ccc(C(C)(C)c2ccccc2)cc1 | > 10 µM |  | IC50 (FFLUC_HILL_SLOPE 2.11, FFLUC_R_SQUARED 0.273, PBLUC_HILL_SLOPE 1.18, PBLUC_R_SQUARED 0.227, read-out: LUCIFERASE INFECTION ASSAY - IC50): 5.92 µM |
| Cc1ccc(NC(=O)COc2ccc3c(=O)c(-c4ccccc4)c(C)oc3c2)cc1[N+](=O)[O-] | > 10 µM | > 10 µM |  |
| N#Cc1ccc(C(=O)Nc2nc3ccc(SC(F)F)cc3s2)cc1 | 3.39 µM |  | IC50 (HEPG2TOX_HILL_SLOPE 1.69, HEPG2TOX_R_SQUARED 0.978, PBLUC_HILL_SLOPE 16.3, PBLUC_R_SQUARED 0.469, read-out: LUCIFERASE INFECTION ASSAY - IC50): 2.96 µM |
| CCc1cc(OCCCCCCN2CCC(C)CC2)ccc1Cl | 7.91 µM |  | IC50 (HEPG2TOX_HILL_SLOPE 8.01, HEPG2TOX_R_SQUARED 0.5, PBLUC_HILL_SLOPE 3.89, PBLUC_R_SQUARED 0.522, read-out: LUCIFERASE INFECTION ASSAY - IC50): 4.49 µM |
| C=CCNC(=O)C(C)Sc1nnc(-c2ccc(C)cc2)c(-c2ccc(C)cc2)n1 (stereo not drawn) | 2.06 µM |  | IC50 (PBLUC_HILL_SLOPE 3.18, 2.13, PBLUC_R_SQUARED 0.929, 0.663, read-out: LUCIFERASE INFECTION ASSAY - IC50): 0.807 µM |
| C(=N\Nc1ncnc2sc3c(c12)CCCC3)/c1c(-c2ccccc2)n(-c2ccccc2)c2ccccc12 | > 10 µM | > 10 µM |  |
| Cc1cc(/C=C2\SC(N3CCOCC3)=NC2=O)c(C)n1-c1cccc(C(F)(F)F)c1 | > 10 µM | > 10 µM |  |
| C=CCOc1ccccc1C(=O)Nc1nc2c(s1)CN(C(=O)OC(C)(C)C)CC2 | 4.73 µM |  | IC50 (HEPG2TOX_HILL_SLOPE 3.68, HEPG2TOX_R_SQUARED 0.942, PBLUC_HILL_SLOPE 10.6, PBLUC_R_SQUARED 0.381, read-out: LUCIFERASE INFECTION ASSAY - IC50): 3.84 µM |
| COc1ccc2c(C)cc3nnc(SCCOc4ccccc4F)n3c2c1 | 5.11 µM |  | IC50 (PBLUC_HILL_SLOPE 752, PBLUC_R_SQUARED 0.219, read-out: LUCIFERASE INFECTION ASSAY - IC50): 5.09 µM |
| CC(C)OCc1cccc(NC(=O)Nc2cccc(Cl)c2)c1 | 1.8 µM |  | IC50 (HEPG2TOX_HILL_SLOPE 8.19, HEPG2TOX_R_SQUARED 0.0219, PBLUC_HILL_SLOPE 262, PBLUC_R_SQUARED 0.512, read-out: LUCIFERASE INFECTION ASSAY - IC50): 1.78 µM |

| Compound | IC90 | IC50 [1] | also measured |
| --- | --- | --- | --- |
| Cc1cccn2c(=O)cc(CN3C(=O)NC(C)(c4ccc(F)cc4)C3=O)nc12 (stereo not drawn) | > 2 µM |  | IC50 (HEPG2TOX_HILL_SLOPE 5.95, HEPG2TOX_R_SQUARED 0.496, PBLUC_HILL_SLOPE 2.16, PBLUC_R_SQUARED 0.177, read-out: LUCIFERASE INFECTION ASSAY - IC50): 1.96 µM |
| COc1ccc(NC(=O)c2cc(N(C)Cc3ccccc3)ncn2)cn1 | 7.26 µM |  | IC50 (HEPG2TOX_HILL_SLOPE 2.56, HEPG2TOX_R_SQUARED 0.944, PBLUC_HILL_SLOPE 1.8, PBLUC_R_SQUARED 0.498, read-out: LUCIFERASE INFECTION ASSAY - IC50): 2.14 µM |
| CCC1CCc2sc(C(=O)NNC(=O)c3cnccn3)cc2C1 (stereo not drawn) | > 10 µM |  | IC50 (HEPG2TOX_HILL_SLOPE 2.38, HEPG2TOX_R_SQUARED 0.712, PBLUC_HILL_SLOPE 3.73, PBLUC_R_SQUARED 0.532, read-out: LUCIFERASE INFECTION ASSAY - IC50): 6.76 µM |
| CCOC(=O)/C=C/C(=O)OCC(=O)NC(c1ccccc1)c1ccccc1 | > 10 µM | > 10 µM |  |
| COc1cc(-c2cnc3cnc(-c4cccc(NS(C)(=O)=O)c4)cn23)cc(OC)c1OC | 6.6 µM |  | IC50 (HEPG2TOX_HILL_SLOPE 7.03, HEPG2TOX_R_SQUARED 0.532, PBLUC_HILL_SLOPE 3.63, PBLUC_R_SQUARED 0.378, read-out: LUCIFERASE INFECTION ASSAY - IC50): 3.61 µM |
| Cc1[nH]c2c(-c3ccccc3)c(C(F)(F)F)nn2c(=O)c1Cc1ccccc1 | > 8.61 µM | 7.44 µM |  |
| Cc1ccc(NC(=S)Nc2cccc(C(F)(F)F)c2)c(C)c1 | > 10.2 µM |  | IC50 (PBLUC_HILL_SLOPE 13, PBLUC_R_SQUARED 0.213, read-out: LUCIFERASE INFECTION ASSAY - IC50): 9.86 µM |
| O=C(COc1ccccc1SCc1ccc(Cl)cc1)NNC(=O)c1ccc(Cl)cc1 | > 7.15 µM | > 7.15 µM |  |
| Cc1ccc(CNC(=O)c2ccc(/C=C3\SC(=O)NC3=O)cc2)cc1 | > 10 µM |  | IC50 (PBLUC_HILL_SLOPE 1.15, PBLUC_R_SQUARED 0.802, read-out: LUCIFERASE INFECTION ASSAY - IC50): 2.5 µM |
| O=C(Nc1ccc(F)cc1F)c1cc(Cl)ccc1O | 4.37 µM |  | IC50 (HEPG2TOX_HILL_SLOPE 14.4, HEPG2TOX_R_SQUARED 0.715, PBLUC_HILL_SLOPE 17.6, PBLUC_R_SQUARED 0.0303, read-out: LUCIFERASE INFECTION ASSAY - IC50): 3.86 µM |
| N#Cc1cccc(NC(=O)CNc2cc(C(F)(F)F)ccc2N2CCCC2)c1 | > 10 µM | > 10 µM |  |
| OCc1cccc(-c2cnc3ccc(-c4ccc(F)cc4)nn23)c1 | 6.8 µM |  | IC50 (HEPG2TOX_HILL_SLOPE 2.34, HEPG2TOX_R_SQUARED 0.934, PBLUC_HILL_SLOPE 3.16, PBLUC_R_SQUARED 0.564, read-out: LUCIFERASE INFECTION ASSAY - IC50): 3.39 µM |
| COc1ccc(N(CC(=O)Nc2ccc(Cl)cc2Cl)S(=O)(=O)c2cccs2)cc1 | 3.69 µM |  | IC50 (HEPG2TOX_HILL_SLOPE 1.66, HEPG2TOX_R_SQUARED 0.962, PBLUC_HILL_SLOPE 19.1, PBLUC_R_SQUARED 0.554, read-out: LUCIFERASE INFECTION ASSAY - IC50): 3.29 µM |
| O=C1NC2(CCOc3ccccc32)C(=O)N1CC(=O)N1N=C(c2ccc(Cl)cc2)CC1c1ccco1 (stereo not drawn) | > 10 µM |  | IC50 (PBLUC_HILL_SLOPE 2.24, PBLUC_R_SQUARED 0.678, read-out: LUCIFERASE INFECTION ASSAY - IC50): 5.4 µM |
| CC(C)(C)c1cc(NS(=O)(=O)c2cc(C(F)(F)F)cc(C(F)(F)F)c2)c(C#N)s1 | 2.55 µM |  | IC50 (HEPG2TOX_HILL_SLOPE 3.04, HEPG2TOX_R_SQUARED 0.973, PBLUC_HILL_SLOPE 26.7, PBLUC_R_SQUARED 0.729, read-out: LUCIFERASE INFECTION ASSAY - IC50): 2.35 µM |
| O=C(Nc1ccccc1SCc1ccsc1)C1CCCCC1 | > 10 µM | > 10 µM |  |
| COc1ccc(OC)c(CSc2nnc(Nc3cccc(F)c3)s2)c1 | > 10 µM | > 10 µM |  |
| Cc1ccccc1-c1cn2c(-c3cccc(C(=O)N4CCN(C)CC4)c3)cnc2cn1 | > 8.02 µM |  | IC50 (PBLUC_HILL_SLOPE 1.06, PBLUC_R_SQUARED 0.743, read-out: LUCIFERASE INFECTION ASSAY - IC50): 3.76 µM |
| CN1CCN(c2ccc(-c3cn4c(-c5cccc(N(C)C)c5)cnc4cn3)cn2)CC1 | > 7.98 µM |  | IC50 (PBLUC_HILL_SLOPE 2.11, PBLUC_R_SQUARED 0.385, read-out: LUCIFERASE INFECTION ASSAY - IC50): 6.15 µM |
| O=C(Nc1ccn(-c2ccccc2)n1)c1cc(-c2ccccc2)nc2ccccc12 | > 10 µM |  | IC50 (PBLUC_HILL_SLOPE 22.3, 9.62, PBLUC_R_SQUARED 0.228, 0.621, read-out: LUCIFERASE INFECTION ASSAY - IC50): 9.46 µM |
| COc1cc(CNc2ncnc3sc(-c4ccccc4)cc23)ccn1 | > 10 µM | 8.74 µM |  |
| Cc1nn(-c2ccccc2Cl)c2sc(C(=O)Nc3ccc(N4CCN(C)CC4)nc3)cc12 | > 10 µM |  | IC50 (PBLUC_HILL_SLOPE 1.19, PBLUC_R_SQUARED 0.233, read-out: LUCIFERASE INFECTION ASSAY - IC50): 5.77 µM |
